Literature values, collected in patent publication US6800300B1, “Method for treating autoimmune and alloimmune diseases” (Vasogen Ireland Limited, priority 2000, dated 2004).
Counter-ions that a name gives are not always drawn.

How the values were obtained:
[1] = test system: TNF-α production by lymphocytes and macrophages
serum TNF = conditions: endotoxin-induced shock rat model

| Structure (SMILES) | production of TNF-α [1] | serum TNF concentrations (serum TNF) |
| --- | --- | --- |
| COc1ccc(C2CNC(=O)C2)cc1OC1CCCC1 (centres unmarked) [4-(3-cyclopentyloxy4-methoxyphenyl)-2-pyrrolidone] | down-regulate the production of TNF-α |  |
| C[C@H](Cc1ccccc1)Nc1ncnc2c1ncn2[C@@H]1O[C@H](CO)[C@@H](O)[C@H]1O [R-phenylisopropyladenosine (R-PIA), R-phenylisopropyladenosine] |  | reduce serum TNF concentrations |
| CC(=O)O[C@H]1C[C@@]2(C)[C@@H](C[C@@H](O)[C@H]3[C@@]4(C)CC[C@@H](O)[C@@H](C)[C@@H]4CC[C@@]32C)/C1=C(\CCC=C(C)C)C(=O)O [fusidic acid (sodiun salt), fusidic acid] |  | reduce serum TNF concentrations |
| N=C(N)c1ccc(OCCCCCOc2ccc(C(=N)N)cc2)cc1 [pentamidine (isethionate), pentamidine] |  | reduce serum TNF concentrations |
| CC(=O)CCCCn1c(=O)c2c(ncn2C)n(C)c1=O [pentoxifylline] |  | reduce serum TNF concentrations |
